{"source": "patent US20040053972A1", "about": "“Medicinal compositions having improved absorbability” (priority 2000, published 2004)", "key": {"[1]": {"assay": "Measurement of size of crystalline particulate (laser diffraction/scattering)", "format": "physicochemical", "conditions": "distilled water as dispersion medium, SALD-2000A", "procedure": "The average particle size can be measured by using a per se known method and a measuring equipment. The term “average particle size” refers to a volume-average particle size as measured, for example, by a laser diffraction/scattering particle size distribution measuring apparatus (for example, SALD-2000A manufactured by Shimadzu Corporation). The particle size is usually measured by uniformly dispersing a HER2 inhibitor suspension at a concentration of about 1 to 100 μg/ml at room temperature while being subjected to ultra-sonication for a short period of time such as within 1 minute, or while stirring using a vortex mixer. The aqueous solvent used in the measurement is usually water, but buffer solutions having various pH's, a pseudo-body fluid and 0.5% methyl cellulose solution may be used. […]\nThe size of fine particles in the suspension of the drug of crystalline particulate obtained in Example 1 was measured. […] Further, the size of particles obtained by comminuting bulk of the compound of Reference Example B4, which was used in Example 1, with a jet mill was measured in the same manner.\nThe size of fine particles in the suspension of the drug of crystalline particulate obtained in Example 4a was measured. […] Further, crystalline particulate obtained in Example 8a were dispersed again in distilled water and the size of fine particles of the drug was measured in the same manner."}, "[2]": {"system": "human breast cancer cell line BT-474", "assay": "In vitro inhibition of growth of breast cancer cell BT-474", "format": "cell-based", "conditions": "120 h, BT-474 cells, heregulin, cultured for 5 days, SRB staining", "procedure": "In vitro Inhibition of Growth of Breast Cancer Cell BT-474\nIn each well of a 96-well microtiter plate, 100 μl (containing 1,000 cells) of a cell suspension of human breast cancer cell line BT-474 was seeded and incubated at 37° C. in a 5% carbon dioxide gas incubator. On the next day, 100 μl of the 2-fold serial dilution of a solution of each test compound prepared by using 250 μl of a heregulin solution, which was adjusted so as to be the final concentration of 0.8 μg/mL, was added to each well and cultured for 5 days. The solution containing the test compound was removed and the cells were washed and fixed with a 50% trichloroacetic acid solution. To the cells was added a 0.4% (W/V) solution of pigment SRB (dissolved in 1% acetic acid) to fix as well as stain the cell protein (Skehan P. et al., Journal of the National Cancer Institute Vol. 82, pp. 1107-1112, 1990). The pigment solution was removed and the remainder was washed with a 1% acetic acid solution. Then, 100 μl of an extracting solution (10 mM Tris buffer) was added thereto to extract the pigment. The optical density of the extract at the wavelength of 550 nm was measured to determine the amount of the cells in terms of the amount of the protein. The proportion of the amount of remaining protein of each treated group was determined by taking the amount of protein of the control to which no solution of a test compound was added as 100% to calculate the value of the concentration of the compound required for inhibiting the remaining cells by 50% of that of the control (IC50)"}, "HER2": {"biological_target": "T1, HER2 (Homo sapiens, UniProt P04626)", "T1 construct": "amount of phosphorylation of HER2 tyrosine of the cells; endogenous in cells; host or cells: MCF-7 human breast cancer cell line", "T1 sequence (P04626 23-1255)": "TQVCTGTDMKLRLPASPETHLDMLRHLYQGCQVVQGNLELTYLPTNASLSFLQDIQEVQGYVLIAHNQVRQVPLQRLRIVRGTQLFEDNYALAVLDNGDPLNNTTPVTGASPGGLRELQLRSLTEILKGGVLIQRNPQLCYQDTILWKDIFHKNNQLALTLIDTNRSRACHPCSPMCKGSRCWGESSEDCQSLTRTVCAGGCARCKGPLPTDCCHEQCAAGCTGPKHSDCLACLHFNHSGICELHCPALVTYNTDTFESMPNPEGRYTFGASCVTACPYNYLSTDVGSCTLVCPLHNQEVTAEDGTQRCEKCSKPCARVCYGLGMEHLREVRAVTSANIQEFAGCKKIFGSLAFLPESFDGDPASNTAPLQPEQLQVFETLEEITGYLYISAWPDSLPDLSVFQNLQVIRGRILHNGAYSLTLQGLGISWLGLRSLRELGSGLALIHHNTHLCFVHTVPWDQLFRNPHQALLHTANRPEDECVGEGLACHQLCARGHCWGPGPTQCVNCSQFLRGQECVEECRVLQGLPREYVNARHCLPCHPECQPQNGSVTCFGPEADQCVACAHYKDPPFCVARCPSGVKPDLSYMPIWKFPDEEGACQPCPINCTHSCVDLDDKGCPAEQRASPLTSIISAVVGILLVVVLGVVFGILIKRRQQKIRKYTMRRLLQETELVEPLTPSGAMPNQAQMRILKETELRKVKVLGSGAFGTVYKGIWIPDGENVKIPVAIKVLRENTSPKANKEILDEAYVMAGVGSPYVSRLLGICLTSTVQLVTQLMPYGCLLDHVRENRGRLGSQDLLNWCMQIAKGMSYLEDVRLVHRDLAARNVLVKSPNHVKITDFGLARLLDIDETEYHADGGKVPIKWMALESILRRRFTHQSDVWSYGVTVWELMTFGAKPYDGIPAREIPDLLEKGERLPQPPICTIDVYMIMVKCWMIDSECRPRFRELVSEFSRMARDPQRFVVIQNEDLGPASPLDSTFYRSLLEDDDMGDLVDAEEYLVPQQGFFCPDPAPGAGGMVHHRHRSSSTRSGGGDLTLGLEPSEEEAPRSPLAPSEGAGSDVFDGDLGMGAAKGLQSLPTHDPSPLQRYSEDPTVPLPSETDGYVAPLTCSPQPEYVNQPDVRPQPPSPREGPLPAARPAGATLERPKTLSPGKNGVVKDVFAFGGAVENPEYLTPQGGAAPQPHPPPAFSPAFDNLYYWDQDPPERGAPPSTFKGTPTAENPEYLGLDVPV", "assay": "Inhibition of phosphorylation of receptor tyrosine (HER2) in human breast cancer cells MCF-7", "format": "cell-based", "conditions": "MCF-7 cells, test compound 2 hours, then heregulin 0.8 μg/mL for 5 minutes", "procedure": "Inhibition of Phosphorylation of Receptor Tyrosine in Human Breast Cancer Cells\nIn each well of a 24-well plate, 500 μl of the cell suspension ([…]) of human breast cancer cell line MCF-7 was seeded and incubated at 37° C. in a 5% carbon dioxide gas incubator. On the next day, 250 μl of a 4-fold serial dilution of a solution of a test compound was added to each well and, 2 hours later, 250 μl of a heregulin solution, which was adjusted so as to be the final concentration of 0.8 μg/mL, was added thereto. After 5 minutes, an extracting solution was added thereto to terminate the reaction as well as to extract a protein. The protein was fractionated by protein electrophoresis and the protein in the electrophoretic gel was transferred to a nylon filter. The filter was reacted with a phosphorylated tyrosine-specific antibody. The reaction product was fluorescence-labeled and was exposed to a photo-film. The intensity of the exposure on the photo-film was quantitated by an image-analyzing apparatus."}, "[3]": {"system": "Human breast cancer cell line BT-474", "assay": "In vivo breast cancer inhibiting effect (BT-474 implanted in nude mice)", "conditions": "nude mice with BT-474 tumors, orally twice daily 30 mg/kg body weight for 10 days", "procedure": "In Vivo Breast Cancer Inhibiting Effect\nHuman breast cancer cell line BT-474 (5,000,000 cells) were suspended in a gel-matrix solution. The suspension was subcutaneously implanted in the breast of 6-week-old female Balb/C strain nude mice (Friedman R. et al., Proceedings of the National Academy of Sciences of the U.S.A. Vol. 87, pp. 6698-6702, 1990). At the time of the implantation and seven days after the implantation, an estradiol dipropionate solution (5 mg/mL) was intramuscularly administered to the hind leg for the purpose of enhancing a take ratio of tumors. Fourteen days after the implantation, the diameters of tumors were determined. For the experiment were used 5 mice per group with similar tumor size. Each of compounds (4, 6, 14, 17, 19, 20, 23, 24 and 26) of the present invention was suspended in a 5% gum arabic solution (physiological saline) and administered orally twice daily in dose of 30 mg/kg body weight for 10 days. On the day when the administration was terminated, the diameters of tumors were measured. Tumor volume was calculated by the following equation.\nVolume of tumor=longest diameter×shortest diameter×shortest diameter×½\nThe growth rate of tumors was calculated as the proportion of the value obtained by subtracting the initial volume from the final volume in the group to which the drug was administered, to the value obtained by subtracting the initial volume from the final volume in the control group to which a gum arabic solution was administered."}}}
{"smiles": "FC(F)(F)c1ccc(/C=C/c2nc(COc3ccc(CCCCn4ccnn4)cc3)co2)cc1", "note": "[Reference Example B4, 1-(4-{4-[(2-{(E)-2-[4-(Trifluoromethyl)phenyl]ethenyl}-1,3-oxazol-4-yl)methoxy]phenyl}butyl)-1H-1,2,3-triazole]", "values": [{"measurement": "Average particle size (μm)", "setting": "[1]", "result": "≤ 4", "unit": "μm"}, {"measurement": "Average particle size (μm)", "setting": "[1]; listed as Reference Example 4B", "result": 3.85, "unit": "μm"}, {"measurement": "IC50", "setting": "[2]", "result": "< 0.05", "unit": "µM"}, {"measurement": "IC50", "setting": "HER2", "result": 0.1, "unit": "µM"}, {"measurement": "Inhibition ratio (%)", "setting": "[3]", "result": 5, "unit": "%"}]}
